Experimental data as given in paper PMC12732608, “Synthesis and Evaluation of Novel 2-((1H-1,2,4-triazol-5-yl)thio)-N-benzylidene-N-phenylacetohydrazide as Potential Antimicrobial Agents” (International Journal of Molecular Sciences, 2025).
Entries after “also recorded” stand apart in the source; their conditions may differ.

Legend:
[1] = tested on: S. aureus; design: method as in PMID 22906969; conditions: comparable to ampicillin; cited from earlier work
[2] = tested on: E. coli; design: method as in PMID 22906969; conditions: comparable to ampicillin; cited from earlier work
[3] = MTT cytotoxicity assay on HEK cells; format: cell-based; conditions: human, HEK (human embryonic kidney) cells, compared to DMSO control, read-out: cell viability
Description: Cytotoxicity was evaluated on HEK (human embryonic kidney) cell lines using the MTT assay. […] Cells were grown in a medium that was supplemented with 10% FBS and 1% penicillin–streptomycin. This was incubated at 37 °C in a 5% CO2 atmosphere for 24 h. Cells were seeded at 1 × 10^3 cells/well in 96-well plates and allowed to adhere overnight. They were then treated with the test compounds, dissolved in DMSO, at a uniform concentration. […] The control wells contained untreated cells or cells treated with DMSO alone. After 24 h of treatment, 10 µL of the MTT solution (5 mg/mL) was added to each well and incubated for 3 h to allow formazan crystal formation. A solubilization solution (100 µL) was then added to dissolve the crystals. The absorbance at 570 nm was measured using a microplate reader. Cell viability was calculated as a percentage relative to the untreated control. All assays were performed in triplicate.

[4] = tested on: Klebsiella aerogenes ATCC 13048; assay: Growth kinetics assay (OD600) against K. aerogenes; format: cell-based; conditions: 0.5 mg/mL, 6 h, K. aerogenes ATCC 13048
Description: (§1) Both Gram-positive and Gram-negative bacterial strains were employed in the experiment to assess antibacterial activities of the synthesized compounds. Gram-negative Klebsiella aerogenes ATCC 13048 and Gram-positive Enterococcus species MVBP-18 strains were used for the study. Bacterial strains of both were cultured in Luria–Bertani (LB) broth for optimal growth conditions. Bacterial cultures were sustained by culturing a fresh colony from newly streaked LB agar plates to 5 mL of LB medium and incubated at 37 °C with shaking at 200 rpm continuously for 16–18 h in order to achieve the logarithmic growth phase. Overnight cultures, after incubation, were standardized by dilution to an OD600 of 0.05, which contained equal bacterial inoculum for any experimental condition. These optimized cultures were employed for subsequent antibacterial tests, such as growth kinetics analysis, to determine the impact of the test compound on bacterial growth. A preliminary screening was conducted in a 96-well microplate format. Standardized bacterial cultures were treated with the compounds at a final concentration of 0.5 mg/mL. Control wells included untreated bacteria and a DMSO control. The plate was incubated at 37°C, with shaking at 200 rpm continuously, and bacterial growth was monitored by measuring the OD600 every hour for six hours using a microplate reader ( BioTek Synergy H1). The assay was performed in triplicate.

[5] = tested on: Enterococcus species MVBP-18; assay: Growth kinetics assay (OD600) against Enterococcus sp.; format: cell-based; conditions: 0.5 mg/mL, 6 h, Enterococcus sp. MV BP 18
Description: as §1, with “The assay was performed in triplicate.” left out

[6] = tested on: K. aerogenes; assay: CFU enumeration (time-kill) against K. aerogenes; format: cell-based, Klebsiella aerogenes; conditions: for effect on viable bacterial count (CFU assay), in words: within 3 h; for terminal viable bacterial count: terminal values (3 h time course)
Description: as §1, with “[…] Bacterial” for “A preliminary screening was conducted in a 96-well microplate format. Standardized bacterial cultures were treated with the compounds at a final concentration of 0.5 mg/mL. Control wells included untreated bacteria and a DMSO control. The plate was incubated at 37°C, with shaking at 200 rpm continuously, and bacterial”, “both” for “measuring”, “readings over 4–7 h and colony-forming unit (CFU) enumeration. For CFU counting, aliquots from the wells were serially diluted, plated on LB agar, and incubated overnight at 37 °C.” for “every hour for six hours using a microplate reader ( BioTek Synergy H1).”, “resulting colonies were counted to determine the CFU/mL. All validation experiments were also conducted” for “assay was performed”

[7] = tested on: Enterococcus sp.; assay: CFU enumeration (time-kill) against Enterococcus sp.; format: cell-based; conditions: over 3 h incubation
Description: as §1, with “[…] Bacterial” for “A preliminary screening was conducted in a 96-well microplate format. Standardized bacterial cultures were treated with the compounds at a final concentration of 0.5 mg/mL. Control wells included untreated bacteria and a DMSO control. The plate was incubated at 37°C, with shaking at 200 rpm continuously, and bacterial”, “both” for “measuring”, “readings over 4–7 h and colony-forming unit (CFU) enumeration. For CFU counting, aliquots from the wells were serially diluted, plated on LB agar, and incubated overnight at 37 °C.” for “every hour for six hours using a microplate reader ( BioTek Synergy H1).”, “resulting colonies were counted to determine the CFU/mL. All validation experiments were also conducted” for “assay was performed”

[8] = design: method as in earlier work; conditions: comparable to ciprofloxacin; cited from earlier work

SMILES | viability at 24 h, 0.5 mg/mL [3] [%] | growth inhibition (OD600 growth kinetics) [4] | effect on viable bacterial count (CFU assay), in words [6] | other results
NNC(=O)CSc1nc(N=Cc2ccc(Br)cc2)n[nH]1 [2-{3-[4-bromobenzylidene)amino]-1H-1,2,4-triazol-5-ylthio}acetohydrazide] | – | – | – | antibacterial activity [1]: strong antibacterial activity; antibacterial activity [2]: strong antibacterial activity
O=C(CSc1nc[nH]n1)N(/N=C/c1ccccc1)c1ccccc1 [Compound 4a, E-2-((1H-1,2,4-triazol-3-yl)thio)-N′-benzylidene-N-phenylacetohydrazide] | 72.6 | – | – | –
O=C(CSc1nc[nH]n1)N(/N=C/c1ccccc1Cl)c1ccccc1 [Compound 4b, E-2-((1H-1,2,4-triazol-3-yl)thio)-N′-(2-chlorobenzylidene)-N-phenylacetohydrazide] | 68.7 | mild inhibitory activities | – | –
O=C(CSc1nc[nH]n1)N(/N=C/c1ccc(Br)cc1)c1ccccc1 [Compound 4e, E-2-((1H-1,2,4-triazol-3-yl)thio)-N′-(4-bromobenzylidene)-N-phenylacetohydrazide] | 87.4 | – | – | –
O=C(CSc1nc[nH]n1)N(/N=C/c1ccccc1F)c1ccccc1 [Compound 4g, E-2-((1H-1,2,4-triazol-3-yl)thio)-N′-(2-fluorobenzylidene)-N-phenylacetohydrazide] | 96 | most significant growth inhibition; also recorded: highest degree of growth inhibition | reduced viable numbers by several orders of magnitude | growth inhibition (OD600 growth kinetics) [5]: most potent inhibitor; viable counts ([6]; at 2 h, maintained at 3 h): below 10^7 CFU/mL; viable bacterial counts [7]: ~ 10^7 CFU/mL
O=C(CSc1nc[nH]n1)N(/N=C/c1cccc(Br)c1)c1ccccc1 [Compound 4h, E-2-((1H-1,2,4-triazol-3-yl)thio)-N′-(3-bromobenzylidene)-N-phenylacetohydrazide] | 73 | mild inhibitory activities | – | –
O=C(CSc1nc[nH]n1)N(/N=C/c1c(Cl)cccc1Cl)c1ccccc1 [Compound 4j, E-2-((1H-1,2,4-triazol-3-yl)thio)-N′-(2,6-dichlorobenzylidene)-N-phenylacetohydrazide] | 71.6 | – | – | –
COc1cc(/C=N/N(C(=O)CSc2nc[nH]n2)c2ccccc2)cc(OC)c1OC [Compound 4l, E-2-((1H-1,2,4-triazol-3-yl)thio)-N-phenyl-N′-(3,4,5-trimethoxybenzylidene)acetohydrazide] | 55.8 | mild inhibitory activities | moderate-level reduction | terminal viable bacterial count [6]: 10^8–10^9 CFU/mL
O=C(CSc1nc[nH]n1)N(/N=C/c1cccs1)c1ccccc1 [Compound 4n, E-2-((1H-1,2,4-triazol-3-yl)thio)-N-phenyl-N′-(thiophen-2-ylmethylene)acetohydrazide] | 52.8 | most significant growth inhibition | moderate-level reduction | terminal viable bacterial count [6]: 10^8–10^9 CFU/mL
Cc1ccc(-n2c(SCC(=O)NC3CCCCC3)nnc2-c2ccncc2)cc1 [N-Cyclohexyl-2-[5-(4-pyridyl)-4-(p-tolyl)-4H-1,2,4-triazole-3-sulfanyl]-acetamide] | – | – | – | antibacterial activity [8]: good level of inhibition
